This note sets out measurements from ChEMBL document CHEMBL1125639, “Synthesis and resolution of (+-)-7-chloro-8-hydroxy-1-(3'-iodophenyl)-3-methyl-2,3,4,5-tetrahydro- 1H-3- benzazepine (TISCH): a high affinity and selective iodinated ligand for CNS D1 dopamine receptor” (J Med Chem, 1991).

The assay is filed under the species Rattus norvegicus. The assay is classed as functional, Striatum, Membrane.

Description: Inhibition constant of compound on R-(+)-125[I]-8 radioligand binding to rat striatal membranes

Compound `CN1CCc2cc(Cl)c(O)cc2[C@@H](c2ccccc2)C1` [SCH-23390] had an inhibition constant (Ki) of 0.28 nM.
